In ChEMBL document CHEMBL5726992, “CGRP receptor antagonists” (2019):

Target: Calcitonin-gene-related peptide receptor, CALCRL/RAMP1 (Homo sapiens, UniProt O60894+Q16602)
Assay: Radioligand Binding Assay: Human CGRP receptors expressed (consisting of CRLR and RAMP1) in insect Sf21 cell membrane homogenates were re-suspended in the binding buffer (10 mM HEPES, pH 7.4, 5 mM MgCl2, 0.2% BSA) to a final assay concentration of 0.6 μg protein per well. Saturation isotherms were determined by the addition of various concentrations of 3H-telcagepant (Ho et al, The Lancet, 2008, 372, 2115) (in a total reaction volume of 250 μL) for 60 min at rt. At the end of the incubation, membranes were filtered onto a unifilter, a 96-well white microplate with bonded GF/B filter pre-incubated with 0.5% PEI, with a Tomtec cell harvester and washed 5 times with distilled water. Non-specific binding (NSB) was measured in the presence of 10 nM MK-3207 hydrochloride (CAS No. 957116-20-0). Radioactivity on the filter was counted (1 min) on a microbeta counter after addition of 50 μL of scintillation fluid. For inhibition experiments, membranes were incubated with 0.5 nM 3H-telcagepant and 10 concentrations of the inhibitory compound (0.001-10 μM). IC50 values were derived from the inhibition curve and the affinity constant (Ki) values were calculated using the Cheng-Prussoff equation (Cheng et al, Biochem. Pharmacol. 1973, 22, 3099-3108).

Calcitonin-gene-related peptide receptor, CALCRL/RAMP1, sequence (O60894 whole entry): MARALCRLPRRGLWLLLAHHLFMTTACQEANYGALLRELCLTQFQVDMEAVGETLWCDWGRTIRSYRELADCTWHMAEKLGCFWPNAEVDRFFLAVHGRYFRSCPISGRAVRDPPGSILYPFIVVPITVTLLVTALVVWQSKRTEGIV
Calcitonin-gene-related peptide receptor, CALCRL/RAMP1, sequence (Q16602 whole entry): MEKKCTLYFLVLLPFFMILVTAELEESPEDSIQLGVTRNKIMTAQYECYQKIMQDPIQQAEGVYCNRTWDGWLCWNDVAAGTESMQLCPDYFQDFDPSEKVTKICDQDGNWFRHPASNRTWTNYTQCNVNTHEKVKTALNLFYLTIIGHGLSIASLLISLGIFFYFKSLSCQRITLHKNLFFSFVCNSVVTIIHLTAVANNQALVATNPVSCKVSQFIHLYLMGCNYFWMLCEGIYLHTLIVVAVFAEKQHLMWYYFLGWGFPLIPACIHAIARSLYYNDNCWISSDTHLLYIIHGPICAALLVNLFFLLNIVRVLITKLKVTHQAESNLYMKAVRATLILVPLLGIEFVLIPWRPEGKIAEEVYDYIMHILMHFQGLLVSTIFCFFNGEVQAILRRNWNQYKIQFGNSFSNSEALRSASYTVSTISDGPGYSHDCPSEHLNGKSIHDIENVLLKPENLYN

Cc1cc(C[C@@H](NC(=O)N2CCC(n3c(=O)[nH]c4ncccc43)CC2)C(=O)N[C@@H](CC2CCN(CCN(C)C)CC2)C(=O)N2CCN(c3ccncc3)CC2)cc2cn[nH]c12
Ki: 25 pM
